US5427922A (Takeda Chemical Industries, Ltd., priority 1992, dated 1995)
Residue numbers refer to the chain shown, from its start. Values belong to the compound of their own block, whether it stands above or below them.

Experiments:
[1] = target: T1, Ang II type 1 receptor from human placenta (Homo sapiens, UniProt P30556); assay: Radio-labeled Ang II binding activity in animal cells (COS7/pHARp306) expressing full-length Ang II type 1 receptor gene from human placenta; conditions: 10 μM agonist or antagonist added; 100 pM [125I]-Ang II; room temperature, 60 minutes; control (none) 84,148 cpm
T1 sequence (P30556 1-359 Q187R/F204S/L205C/K232N/K240R/L268Q/C289W/R311K/Y312D/F313I): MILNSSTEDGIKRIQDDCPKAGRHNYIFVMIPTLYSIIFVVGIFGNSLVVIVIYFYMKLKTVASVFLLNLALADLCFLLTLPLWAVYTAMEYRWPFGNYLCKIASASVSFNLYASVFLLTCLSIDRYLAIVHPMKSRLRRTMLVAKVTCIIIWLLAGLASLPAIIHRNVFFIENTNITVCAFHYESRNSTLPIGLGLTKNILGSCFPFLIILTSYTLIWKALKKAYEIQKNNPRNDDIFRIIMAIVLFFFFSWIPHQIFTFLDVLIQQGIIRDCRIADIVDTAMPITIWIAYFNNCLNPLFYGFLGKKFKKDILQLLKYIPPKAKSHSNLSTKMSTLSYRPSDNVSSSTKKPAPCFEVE
Procedure: To each well of a 6 well petri dish, 2 ml of a DMEM medium (produced by DIFCO) containing 5% (v/v) FCS was added, and 5×10^4 COS7 cells were seeded. After incubation at 37° C. in the presence of 5% carbon dioxide for two days, the medium was aspirated and twice washed with DMEM medium.

[2] = target: T2, Ang II type 1 receptor of human heart origin (Homo sapiens, UniProt P30556); assay: Binding of radiolabeled Ang II (competition) using membrane fraction of control CHO/pHARt306 cells; conditions: for Competition; IC50 [-log(M)]: membrane fraction of CHO/pHARt306 (human heart origin), [125I]-Ang II, 22° C., 45 minutes
T2 sequence (P30556 1-359): T1 sequence (P30556 1-359 Q187R/F204S/L205C/K232N/K240R/L268Q/C289W/R311K/Y312D/F313I) with R187Q, S204F, C205L, N232K, R240K, Q268L, W289C, K311R, D312Y, I313F
Procedure: All measurements were performed in a series of three runs. […] An aliquot of membrane fraction equivalent to 10 μg of protein was suspended in a 0.1% (w/v) BSA solution containing 25 mM Tris (pH 7.6) and 5 mM magnesium chloride, to yield a 194 μl suspension. […] After 45 minutes of reaction, the reaction mixture was aspirated onto a glass filter, which was washed with 4 ml of ice-cooled Tris (pH 7.6), and the residual radioactivity on the glass filter was measured using a γ-ray counter. The final sample concentration was varied over a range of from 1 pM to 10 μM. In the measurement, the amount of non-specific binding was defined as 0%, and the maximum mount of binding in the absence of sample defined as 100%. With this regard, the -log (M) value of the sample concentration (M) resulting in 50% binding was defined as IC50 value. A membrane fraction was also extracted from control CHO/pHARt306 cells in the same manner as above, and assayed using the same assay system.

[3] = target: T3, Ang II type 1 receptor of human placental origin (Homo sapiens, UniProt P30556); assay: Binding of radiolabeled Ang II (competition) using membrane fraction of CHO/pHARp306 cells; conditions: [125I]-Ang II, 22° C., 45 minutes
T3 sequence (P30556 1-359 Q187R/F204S/L205C/K232N/K240R/L268Q/C289W/R311K/Y312D/F313I): T1 sequence (P30556 1-359 Q187R/F204S/L205C/K232N/K240R/L268Q/C289W/R311K/Y312D/F313I)
Procedure: All measurements were performed in a series of three runs. […] An aliquot of membrane fraction equivalent to 10 μg of protein was suspended in a 0.1% (w/v) BSA solution containing 25 mM Tris (pH 7.6) and 5 mM magnesium chloride, to yield a 194 μl suspension. […] After 45 minutes of reaction, the reaction mixture was aspirated onto a glass filter, which was washed with 4 ml of ice-cooled Tris (pH 7.6), and the residual radioactivity on the glass filter was measured using a γ-ray counter. The final sample concentration was varied over a range of from 1 pM to 10 μM. In the measurement, the amount of non-specific binding was defined as 0%, and the maximum mount of binding in the absence of sample defined as 100%. With this regard, the -log (M) value of the sample concentration (M) resulting in 50% binding was defined as IC50 value.

type 2 receptors = conditions: cited from earlier work
[4] = target: T4, full-length Ang II type 1 receptor of human heart origin (Homo sapiens, UniProt P30556); conditions: CHO/pHARt306
T4 sequence (P30556 1-359): T1 sequence (P30556 1-359 Q187R/F204S/L205C/K232N/K240R/L268Q/C289W/R311K/Y312D/F313I) with R187Q, S204F, C205L, N232K, R240K, Q268L, W289C, K311R, D312Y, I313F
Procedure: (§1) To each well of a 24 well petri dish, a DMEM medium containing 10% (v/v) dialyzed FCS and 35 μg/ml L-proline was added, and 1×10^5 CHO/pHAR306 cells were inoculated. […] After the reaction mixture was removed using an aspirator, 500 μl of a 5% (w/v) trichloroacetic acid solution was added to each well to stop the reaction. The amount of cAMP was measured by EIA (cAMP enzyme immunoassay system, produced by Amersham).

[5] = target: T5, full-length Ang II type 1 receptor of human placental origin (Homo sapiens, UniProt P30556); conditions: 10 μM forskolin in place of Ang II; CHO/pHARp306
T5 sequence (P30556 1-359 Q187R/F204S/L205C/K232N/K240R/L268Q/C289W/R311K/Y312D/F313I): T1 sequence (P30556 1-359 Q187R/F204S/L205C/K232N/K240R/L268Q/C289W/R311K/Y312D/F313I)
Procedure: as §1

[6] = tested on: full-length Ang II type 1 receptor from human placenta; assay: Change in intracellular calcium ion concentration in CHOdhfr-/pHARp206 cells (Fura-2AM fluorescence); format: cell-based; conditions: final concentration 1 μM, 37° C.
Procedure: To each of two collagen-treated slide glasses (1×4 cm) in a 6 cm petri dish, 4 ml of an ASF104 medium (produced by Ajinomoto) containing 5% (v/v) FCS (fetal calf serum) was added, and 5×10^5 CHOdhfr- cells were seeded. After incubation at 37° C. in the presence of 5% carbon dioxide for one day, the medium was aspirated and twice washed with ASF104 medium. 5 μg of the above plasmid pHARp206 was dissolved in 50 μl of HBS buffer (8.0 g/l sodium chloride, 380 mg/l potassium chloride, 200 mg/l disodium monohydrogen phosphate, 5.9 g/l HEPES, 15 mg/l calcium chloride dihydrate, 10 mg/l magnesium chloride hexahydrate, pH 7.45). […]
After the above transformant cells CHOdhfr-/pHARp206 were twice washed with HEPES buffer (140 mM sodium chloride, 5 mM potassium chloride, 1 mM magnesium sulfate, 1 mM disodium monohydrogen phosphate, 1 mM calcium chloride, 25 mM glucose, 25 mM HEPES; pH 7.2), 4 ml of a HEPES buffer containing 4 μM Fura-2AM (Dojin Kagaku) was added, and the mixture was kept standing at 15° C. in the dark for 80 minutes. […] Fluorescence at a wavelength of 505 nm, generated upon excitation with ultraviolet rays of wavelengths of 340 nm and 380 nm, was measured.

[7] = tested on: reactions of KCl, norepinephrine, isoproterenol, vasopressin, bradykinin, acetylcholine or 5-HT; conditions: at suppressive doses for a high concentration (10 μM) of Ang II; cited from earlier work
ACE = conditions: at suppressive doses for a high concentration (10 μM) of Ang II; cited from earlier work
Ang II receptor = conditions: cited from earlier work
type 1 receptors = conditions: cited from earlier work
[8] = target: T4, full-length Ang II type 1 receptor of human heart origin; conditions: CHO/pHARt306; remark: listed apart in the source
Procedure: (§2) To each well of a 12 well petri dish, a DMEM medium containing 10% (v/v) dialyzed-FCS and 35 μg/ml L-proline was added, and 1×10^5 CHO/pHAR306 cells were inoculated. One day later, the medium was replaced with the same medium but containing 1 μCi/ml [^3 H]-labeled inositol (Amersham), and cultivation was continued for 24 hours. The petri dish was twice washed with a PBS buffer (FLOW Laboratories) containing 0.2% (w/v) BSA and then kept standing for 30 minutes, after which it was kept standing at 37° C. for 30 minutes in the presence of the same buffer but containing 10 mM lithium chloride. […] When the reaction time exceeded 30 seconds, the reaction mixture was removed using an aspirator, after which 1 ml of a 5% (w/v) trichloroacetic acid solution was added to each well to stop the reaction. When the reaction time was 5 to 30 seconds, 1 ml of a 10% (w/v) trichloroacetic acid solution was injected directly to each well to stop the reaction. The [^3 H]-labeled inositol phosphate (IPs) was separated using ion exchange column AG 1-X8 (Bio-Rad Laboratories). […] The radioactivity of each fraction was determined using a liquid scintillation counter.

[9] = target: T5, full-length Ang II type 1 receptor of human placental origin; assay: Changes in intracellular inositol phosphate (IPs) concentration in CHO/pHARp306 cells; format: cell-based
Procedure: as §2

[10] = target: T5, full-length Ang II type 1 receptor of human placental origin; assay: Ang II binding activity of isolated CHO cell clone (method of Example 9); conditions: CHO/pHARp306 clone
Procedure: After the mixture was thrice washed with TSMB buffer, cells were solubilized with 1N sodium hydroxide (1 ml), and their radioactivity was determined using a γ-ray counter.

Compound: Ang III: amino acid number of Ang III is lower by 1 than that of Ang II; used as agonist
Radioactivity (bound [125I]-labeled Ang II) [1]: 670 cpm
Competition; IC50 [-log(M)] [2]: 7.57 -log(M)
Competition; IC50 [-log(M)], column A (second; B in text) [3]: 9.07 -log(M)

Compound: C=C[C@@]1(C)CC(=O)[C@]2(O)[C@@]3(C)[C@@H](O)CCC(C)(C)[C@@H]3[C@H](O)[C@H](OC(C)=O)[C@@]2(C)O1 [forskolin]
formation of cAMP ([4]; 10 μM forskolin in place of Ang II): about 80 pmol/well
formation of cAMP [5]: about 80 pmol/well

Compound: endothelin 1: endothelin 1 (CSCSSLMDKECVYFCHLDIIW)
change in fluorescence (intracellular Ca ion concentration) [6]: no change occurred in fluorescence

Compound: CCCCc1nc(Cl)c(CO)n1Cc1ccc(-c2ccccc2-c2nn[nH]n2)cc1 [DuP753]
effect on reactions of KCl, norepinephrine, isoproterenol, vasopressin, bradykinin, acetylcholine or 5-HT [7]: no effect
effect on ACE action (ACE): no effect
specificity of action on Ang II receptors (Ang II receptor; vascular wall, adrenal cortex and other organs): act specifically on Ang II receptors in the vascular wall, adrenal cortex and other organs to suppress Ang II action only
antagonism of type 1 receptors (type 1 receptors): antagonistic

Compound: CCCCc1nc(Cl)c(CC(=O)[O-])n1Cc1ccccc1[N+](=O)[O-].[Na+] [CV2961]
Ang II receptor antagonist activity (Ang II receptor): found to possess Ang II receptor antagonist activity

Compound: Ang II
Radioactivity (bound [125I]-labeled Ang II) [1]: 676 cpm
total IPs production, dose response ([8]; 20 minutes after stimulation, final Ang II 1 pM to 10 μM, FIG. 7A): IPs production was not suppressed even in the presence of high concentrations of Ang II
IPs production, time course ([8]; Ang II 100 nM, 37° C.): the same IPs production pattern as with CHO/pHARp306 cells
suppression of forskolin-stimulated cAMP production ([4]; 1 pM to 10 μM Ang II plus 10 μM forskolin, 10 minutes, FIG. 8A): cAMP production suppression depending on Ang II concentration
total IPs production, dose response ([9]; 20 minutes after stimulation, final Ang II 1 pM to 10 μM, FIG. 7B): IPs production was suppressed in response to stimulation with high concentrations of Ang II
IPs production, time course ([9]; Ang II 100 nM, 37° C., FIG. 6): a transient rise in IP3 concentration occurred, followed by formation of IP2 and IP1 in this order
affinity to Ang II [10]: high affinity

Further lines, with some results ahead:

Radioactivity (bound [125I]-labeled Ang II) [1]: 69,980 cpm
Competition; IC50 [-log(M)] [2]: < 6.00 -log(M)
Competition; IC50 [-log(M)], column A (second; B in text) [3]: 5.49 -log(M)
Compound: Cc1cc(Cn2cnc3c2CC(C(=O)O)N(C(=O)C(c2ccccc2)c2ccccc2)C3)ccc1N (stereo not drawn) [PD123177]
antagonism of type 2 receptors (type 2 receptors): antagonistic

IC50 ([2]; read-out: Competition, IC50 [-log(M)] (converted)): 3.31e-10 M
Competition; IC50 [-log(M)], column A (second; B in text) [3]: 9.61 -log(M)
Compound: CCOc1nc2cccc(C(=O)O)c2n1Cc1ccc(-c2ccccc2-c2nn[nH]n2)cc1 [CV-11974]
